Measured values as given in patent publication US8785452B2, “Anti-infective compounds” (priority 2008, dated 2014).
Where two headings read alike, the source gives them in different places.

Legend:
[1] = tested on: M. tuberculosis H37Rv-GFP; experiment: microbe, parasite or virus in culture; format: cell-based, Mycobacterium tuberculosis; settings: Mycobacterium tuberculosis, H37RV, Macrophage
[2] = tested on: Raw264.7 cells; settings: mouse, 5 days; for Primary QIM CellNb: 20 μM
[3] = tested on: Raw264.7 cells; experiment: Cell number (CellNb) from image analysis of the phenotypic cell-based assay; settings: for Primary QIM CellNb: primary screen, 20 μM
[4] = confirmation, 20 uM, read-out: QIM Confirm % Inhibition 20 uM
[5] = primary screen, 20 μM, read-out: Primary QIM % Inhibition

Row | SMILES | inhibition at 20 µM [1, 4] [%] | inhibition at 20 µM [1, 5] [%] | Primary QIM CellNb [2] | Primary QIM CellNb [3] | QIM Confirm CellNb 0.2 uM [2] | QIM Confirm CellNb 20 uM ([3]; confirmation) | QIM Confirm CellNb 20 uM [2] | QIM Confirm CellNb 2 uM [2] | QIM Confirm CellNb 2 uM ([3]; confirmation) | QIM Confirm CellNb 0.2 uM ([3]; confirmation, 0.2 uM)
1 | O=C(N/N=C/c1ccc(O)cc1)c1ccncc1 [IPK 000 043 07] | 98.6 | 104 | 102.5 | 303.5 |  |  |  |  |  | 
2 | CC(NC(=O)c1ccc(C(C)(C)C)cc1)c1ccccc1 (centres unmarked) [IPK 000 067 61] | 68.5 | 84.3 | 28.2 | 182.0 |  |  |  |  |  | 
3 | C=CCn1c(Cc2ccccc2)nc2c(cnn2-c2ccccc2)c1=O [IPK 000 073 11] | 56.1 | 49.1 | −10.5 | 147.8 | 67.2 |  |  |  |  | 
4 | Oc1ccccc1/N=C/c1cc(Br)cc(Br)c1O [IPK 000 044 41] | 29.9 | -120 | 34.0 | 126.8 |  |  |  |  |  | 
5 | CCc1ccc(/C=C(/C#N)C(=O)OC(C)C)s1 [IPK 000 107 90] | 89.6 | 79.3 | 52.8 | 494.3 |  |  |  |  |  | 
6 | Oc1ccc(Br)cc1/C=N/c1ccccc1O [IPK 000 043 83] | 31.3 | -80.9 | 17.1 | 89.0 |  |  |  |  |  | 
7 | O=C(N/N=C/c1ccccc1[N+](=O)[O-])c1ccncc1 [IPK 000 043 35] | 101 | 104 | 94.4 | 245.5 |  | 461.5 |  |  |  | 
8 | Cc1ccc(C(=O)NC2CCCCCC2)cc1[N+](=O)[O-] [IPK 000 047 06] | 69.9 | 57.3 | 17.6 | 290.8 |  |  |  |  |  | 
9 | O=C(N/N=C/c1ccc(O)c([N+](=O)[O-])c1)c1ccncc1 [IPK 000 043 11] | 104 | 104 | 99.5 | 366.0 |  |  |  |  |  | 
10 | Cc1cccc(NC(=O)c2c(NC(=O)c3ccccc3Cl)sc3c2CCC3)c1 [IPK 000 073 70] | 103 | 88.6 | 56.7 | 234.0 |  |  |  |  |  | 
11 | O=C(N/N=C/c1cc2c(cc1[N+](=O)[O-])OCO2)c1ccncc1 [IPK 000 058 30] | 70.8 | 95.5 | 98.3 | 315.8 |  |  |  |  |  | 
12 | CC(NC(=O)c1cccc(Cl)c1)c1ccccc1 (centres unmarked) [IPK 000 067 51] | 73.2 | 75.2 | 17.9 | 142.3 |  |  |  |  |  | 
13 | CN1C/C(=C\c2ccccc2Br)C(=O)/C(=C/c2ccccc2Br)C1 [IPK 000 102 36] | 66.5 | 65.6 | 4.4 | 193.3 |  |  |  |  |  | 
14 | COc1cccc(/C=N/NC(=O)c2ccncc2)c1OC [IPK 000 043 02] | 99.8 | 81.1 | 98.7 | 229.5 |  |  |  |  |  | 
15 | CCCCOc1ccc(/C=N/NC(=O)c2ccncc2)cc1 [IPK 000 043 06] | 98 | 81.4 | 98.1 | 200.3 |  |  |  |  |  | 
16 | CCN1C/C(=C\c2ccc3c(c2)OCO3)C(=O)/C(=C/c2ccc3c(c2)OCO3)C1 [IPK 000 102 52] | 68.1 | 70.4 | −7.0 | 179.8 |  |  |  |  |  | 
17 | COc1cc(CN(C)NC(=O)c2ccccn2)ccc1OC(=O)c1cccs1 [IPK 000 058 20] | 44.3 | 98.1 | 66.6 | 344.8 |  |  |  |  |  | 
18 | COc1cc(Br)cc(/C=N/NC(=O)c2ccncc2)c1O [IPK 000 079 15] | 97.9 | 82.4 | 90.5 | 383.3 |  |  |  |  |  | 
19 | Oc1c(Cl)cc(Cl)cc1C(=S)Nc1ccccc1 [IPK 000 042 78] | 91.7 | 73.9 | 33.0 | 194.5 |  |  |  |  |  | 
20 | O=C(N/N=C\c1cc2c(s1)CCCCC2)c1ccncc1 [IPK 000 102 07] | 84.7 | 94.7 | 99.5 | 116.0 |  | 124.8 | 79.6 |  |  | 
21 | CC(/C=N/NC(=O)c1cccc(F)c1)c1ccccc1 (centres unmarked) [IPK 000 104 13] | 89.6 | 68.8 | 25.2 | 115.8 |  |  |  |  |  | 
22 | COc1cc(/C=N/NC(=O)c2ccncc2)ccc1O [IPK 000 042 97] | 103 | 99.7 | 99.2 | 307.8 |  |  |  |  |  | 

Row | SMILES | inhibition at 20 µM [1, 4] [%] | inhibition at 20 µM [1, 5] [%] | Primary QIM CellNb [2] | Primary QIM CellNb [3] | QIM Confirm CellNb 0.2 uM [2] | QIM Confirm CellNb 20 uM ([3]; confirmation) | QIM Confirm CellNb 20 uM [2] | QIM Confirm CellNb 2 uM [2] | QIM Confirm CellNb 2 uM ([3]; confirmation) | QIM Confirm CellNb 0.2 uM ([3]; confirmation, 0.2 uM)
23 | Cc1nc2c(o1)NC(N)=C(C#N)C2c1c[nH]nc1C (centres unmarked) [IPK 000 065 03] | 73.2 | 68.2 | 1.1 | 197.8 |  |  |  |  |  | 
24 | O=C(N/N=C/c1ccc(F)cc1)c1ccncc1 [IPK 000 041 52] | 93.7 | 75.6 | 103.2 | 262.5 |  |  |  |  |  | 
25 | CCCC(=O)/N=C(\N)Nc1nc2ccccc2o1 [IPK 000 122 62] | 65.1 | 62.8 | 26.2 | 131.5 |  |  |  |  |  | 
26 | O=C(N/N=C/c1ccc(O)cc1O)c1ccncc1 [IPK 000 043 28] | 95.9 | 94.9 | 87.1 | 326.5 |  |  |  |  |  | 
27 | CCOc1ccccc1/C=N/NC(=O)c1ccncc1 [IPK 000 043 27] | 102 | 47.6 | 105.2 | 125.8 |  |  |  |  |  | 
28 | O=C(Nc1nccs1)c1ccc(COc2ccc(Cl)cc2)o1 [IPK 000 124 54] | 75 | 75.5 | 16.4 | 503.3 |  |  |  |  |  | 
29 | CCOC(=O)CSc1nc(N)c(C(=O)Nc2ccc(N(C)C)cc2)s1 [IPK 000 105 70] | 84.6 | 61.2 | 4.7 | 315.5 |  |  |  |  |  | 
30 | O=[N+]([O-])c1ccc(O)c(/C=N/c2ccccc2O)c1 [IPK 000 044 20] | 30.7 | -67.5 | 6.3 | 135.0 |  |  |  |  |  | 
31 | CCC(C)c1ccc(NC(=O)c2ccc(Cl)c([N+](=O)[O-])c2)cc1 (centres unmarked) [IPK 000 048 71] | 70 | 62.1 | 22.6 | 56.5 |  |  |  |  |  | 
32 | O=C1CSC(N/N=C/c2cc([N+](=O)[O-])ccc2O)N1 (centres unmarked) [IPK 000 109 00] | 8.2 | -7.8 | 23.8 | 87.8 |  |  |  |  |  | 
33 | O=C(N/N=C1\C(=O)N(Cc2cccc3ccccc23)c2ccccc21)c1cc(-c2ccccc2)n[nH]1 [IPK 000 103 78] | 98 | 94.6 | 3.5 | 263.5 |  |  |  |  |  | 
34 | NNC(=O)c1ccc(COc2ccccc2Cl)o1 [IPK 000 123 03] | 72.1 | 78.3 | 12.0 | 540.8 |  |  |  |  |  | 
35 | COc1ccc(OC)c(/C=N/NC(=O)c2ccncc2)c1 [IPK 000 042 93] | 106 | 109 | 105.1 | 321.8 |  |  |  |  |  | 
36 | O=[N+]([O-])c1cc2c(cc1/C=N/c1ccc(S(=O)(=O)Nc3nccs3)cc1)OCO2 [IPK 000 057 78] | 35.5 | -10.9 | 12.6 | 177.0 |  |  |  |  |  | 
37 | COc1cccc(C2Nc3ccc(C(=O)O)cc3C3C=CCC32)c1 (centres unmarked) [IPK 000 112 80] | 55.6 | 41.1 | 10.7 | 152.0 |  |  |  | 98.3 | 189.0 | 
38 | CC(Oc1cccc2ccccc12)C(=O)NNC(=O)c1cc2ccccc2oc1=O (centres unmarked) [IPK 000 095 07] | 75.8 | 70.9 | 8.0 | 388.3 |  |  |  |  |  | 
39 | O=C(Nc1ccc(Cl)c(Cl)c1)c1ccc([N+](=O)[O-])cc1Cl [IPK 000 048 99] | 73.5 | 76.8 | 40.3 | 217.8 |  |  |  |  |  | 
40 | Cc1cccc(/C=N/NC(=O)c2ccncc2)c1 [IPK 000 043 26] | 102 | 109 | 102.2 | 347.3 | 98.6 | 430.3 | 72.4 | 99.5 | 523.3 | 413.6
41 | O=C(N/N=C/c1cc([N+](=O)[O-])ccc1O)c1ccncc1 [IPK 000 042 98] | 105 | 102 | 95.3 | 350.0 |  |  |  |  |  | 
42 | NNC(=O)c1ccc(COc2ccccc2Br)o1 [IPK 000 124 64] | 78.2 | 79.9 | 54.7 | 501.5 |  |  |  |  |  | 
43 | CCOc1ccc(/C=N/NC(=O)c2ccncc2)cc1 [IPK 000 041 49] | 94.5 | 83.8 | 102.3 | 336.5 |  |  |  |  |  | 
44 | O=C(N/N=C/c1ccc([N+](=O)[O-])cc1)c1ccncc1 [IPK 000 041 48] | 88.4 | 84.5 | 97.5 | 315.3 |  |  |  |  |  | 
